Several values for one entry are separate records, joined by “and”; a condition that tells them apart may be missing. Equal entries are not always repeated. Where two headings read alike, the source gives them in different places.
Assays:
[1] = biological target: T1, human serotonin 5-HT2c receptor (Homo sapiens, UniProt P28335); test: Human 5-HT2C receptor radioligand binding assay (agonist site, [125I]DOI); details: 5-HT2c agonist site; transfected CHO cell membranes; 0.2 nM [125I](±)DOI
T1 construct: expressed in transfected cells; host or cells: CHO cells (membrane homogenates)
T1 sequence (P28335 33-458): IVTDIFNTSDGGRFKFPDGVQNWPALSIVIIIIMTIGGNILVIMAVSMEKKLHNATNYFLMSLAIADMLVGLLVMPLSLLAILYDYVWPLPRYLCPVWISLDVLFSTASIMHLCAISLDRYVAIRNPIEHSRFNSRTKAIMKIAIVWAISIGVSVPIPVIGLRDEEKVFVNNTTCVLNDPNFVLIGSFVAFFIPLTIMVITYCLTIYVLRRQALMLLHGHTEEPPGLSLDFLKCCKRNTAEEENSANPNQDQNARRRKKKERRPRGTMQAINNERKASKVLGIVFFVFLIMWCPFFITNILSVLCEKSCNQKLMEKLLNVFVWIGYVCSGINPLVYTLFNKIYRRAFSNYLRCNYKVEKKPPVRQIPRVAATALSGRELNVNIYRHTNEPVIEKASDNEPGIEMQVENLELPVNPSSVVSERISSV
Experimental: (i) Human 5-HT2C Receptor Radioligand Binding Assay
Affinity of compounds for the agonist site of the […], receptor in transfected CHO cells was determined in a radioligand binding assay essentially as described by Bryant, H. U., et al., Life Sciences (1996) 59(15), 1259-1268.

5HT2B receptors = biological target: T2, 5HT2B receptors (Homo sapiens, UniProt P41595); test: Human 5-HT2B functional high throughput screening assay in CHO-K1 cells (calcium flux); assay type: cell-based; details: for EC50: CHO-K1 cells, calcium flux
T2 construct: expressed in transfected cells; host or cells: CHO-K1 cells
T2 sequence (P41595 whole entry): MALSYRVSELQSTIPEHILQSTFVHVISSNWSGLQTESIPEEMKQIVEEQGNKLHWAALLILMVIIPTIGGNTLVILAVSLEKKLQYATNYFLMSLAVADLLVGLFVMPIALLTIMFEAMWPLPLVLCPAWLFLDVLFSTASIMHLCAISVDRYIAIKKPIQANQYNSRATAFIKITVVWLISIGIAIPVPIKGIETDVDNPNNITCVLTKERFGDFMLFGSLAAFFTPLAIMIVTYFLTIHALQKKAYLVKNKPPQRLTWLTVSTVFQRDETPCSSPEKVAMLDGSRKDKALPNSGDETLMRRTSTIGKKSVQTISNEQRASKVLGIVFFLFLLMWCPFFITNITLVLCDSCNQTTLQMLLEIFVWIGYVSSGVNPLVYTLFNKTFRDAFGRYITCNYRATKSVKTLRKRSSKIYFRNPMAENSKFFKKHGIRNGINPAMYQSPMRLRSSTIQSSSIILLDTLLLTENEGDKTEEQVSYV
Outline: (§1)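 Frozen CHO-K1 cells overexpressing the receptor were plated, serum-starved overnight, then loaded with Ca4 dye plus 2.5 mM probenecid for 60 min at room temperature. FLIPR fluorescence (ex 480/em 530 nm, 25 °C) after compound addition was normalized to serotonin; EC50 and Emax came from 4-parameter logistic fits.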

5HT2C receptors [2] = biological target: T3, 5HT2C receptors (Homo sapiens, UniProt P28335); test: Human 5-HT2C functional assay in CHO-K1 cells (96-well, calcium, FLIPR); assay type: cell-based; design: expressed in transfected cells; details: 5-HT2c agonist activity, CHO-K1 cells stably transfected
T3 sequence (P28335 33-458): T1 sequence (P28335 33-458)
Experimental: (iv) Human 5-HT2C Functional Assay in CHO-K1 Cells
Functional activity was determined by testing the effect of the compounds on intracellular calcium levels in CHO-K1 cells stably transfected with the human 5-HT2C receptor. Cells were seeded into 96-well plates at 60,000 cells/well and grown overnight in tissue culture medium (UltraCHO™ (Lonza), containing 1% dFCS, 250 μg/mL Zeocin, 400 μg/mL Geneticin) at 37° C. and 5% CO2. Growth medium was replaced by medium without dFCS for overnight incubation. Cells were loaded with a fluorescent calcium-sensitive dye in the presence of probenicid according to the manufacturer's protocol (FLIPR Ca4 Assay kit, Molecular Devices). Serial compound dilutions (final concentrations 10^−10 to 10^−5 M) were added to the cells and the maximum calcium response was determined using a FLIPR instrument (Molecular Devices). Concentration-response curves were fitted using a four-parameter logistic equation (GraphPad Prism). The concentration at which the compound exerts half its maximal effect is named the ‘effective concentration 50’ or ‘EC50’ and is listed in Table 5.

5HT2C receptors [3] = biological target: T3, 5HT2C receptors; test: Human 5-HT2C functional high throughput screening assay in CHO-K1 cells (calcium flux); assay type: cell-based; design: expressed in transfected cells; host or cells: CHO-K1 cells; details: for Emax: 5-HT2C, maximum functional response as percentage relative to the effect of serotonin; for EC50: CHO-K1 cells, calcium flux
Outline: as §1

5HT2C receptors [4] = biological target: T3, 5HT2C receptors; test: Human 5-HT2C functional assay in 1321N1 cells (intracellular calcium, FLIPR); assay type: cell-based; design: expressed in transfected cells; host or cells: 1321N1 cells; details: 5-HT2c agonist activity, maximum calcium response
Outline: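 Intracellular calcium (Fluo-4, FLIPR peak response) was measured in stably transfected human 5-HT2C 1321N1 cells after overnight serum-free culture. Compounds were applied at final 10^−10 to 10^−5 M either alone or together with 10^−9 M serotonin. Half-maximal effect concentration was derived by four-parameter logistic fitting.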

[5] = 5-HT2B, maximum functional response as percentage relative to the effect of serotonin
[6] = 5-HT2B agonist activity, read-out: EC50
[7] = 5-HT2C agonist activity, read-out: EC50

| EC50 (5HT2B receptors; [6]) [nM] | EC50 (5HT2C receptors [3]; [7]) [nM] | Emax (5HT2C receptors [3]; CHO-K1, read-out: Emax) [%] | SMILES | Ki [1] [nM] | Emax (5HT2B receptors; [5]) | EC50 (5HT2B receptors; EC50, 5-HT2B agonist activity) | EC50 (5HT2C receptors [2]) [nM] | Emax (5HT2C receptors [3]; CHO-K1) [%] | EC50 (5HT2C receptors [3]; EC50, 5-HT2C agonist activity) [nM] | Emax (5HT2B receptors; CHO-K1) [%] | EC50 (5HT2C receptors [4]) [nM] | Emax (5HT2C receptors [3]) [%] |
| --- | --- | --- | --- | --- | --- | --- | --- | --- | --- | --- | --- | --- |
|  |  |  | CN1C[C@H]2CNC(=O)c3cc(Cl)ccc3[C@@H]2C1 (relative stereo) [Example 53, Trans-8-chloro-2-methyl-1,2,3,3a,4,5-hexahydrobenzo[e]pyrrolo[3,4-c]azepin-6(10bH)-one] | 8.1 | inactive | > 10000 nM | 2.93 | 100 | 20 |  |  |  |
| > 10000 | 200 | 120 | O=C1NC[C@@H]2CN(Cc3ccccc3)C[C@H]2c2cc(F)ccc21 (relative stereo) [Example 63, Trans-2-benzyl-9-fluoro-1,2,3,3a,4,5-hexahydrobenzo[c]pyrrolo[3,4-e]azepin-6(10bH)-one] | 140 | inactive |  | 145 |  |  |  |  |  |
|  |  |  | O=C1NC[C@@H]2CNC[C@H]2c2cc(F)ccc21 (relative stereo) [Example 64, Trans-9-fluoro-1,2,3,3a,4,5-hexahydrobenzo[c]pyrrolo[3,4-e]azepin-6(10bH)-one] | 1000 |  |  | 17 |  |  |  |  |  |
|  |  |  | O=C1NC[C@@H]2CNC[C@H]2c2c(F)cccc21 (relative stereo) [Example 67, Trans-10-fluoro-1,2,3,3a,4,5-hexahydrobenzo[c]pyrrolo[3,4-e]azepin-6(10bH)-one] | 43 |  | 1000 nM and > 10000 nM | 2.5 | > 120 | 5 | 110 | 6.55 |  |
| > 10000 | 7 | 110 | CN1C[C@H]2CNC(=O)c3cc(-c4ccccc4)ccc3[C@@H]2C1 (relative stereo) [Example 86, Trans-2-methyl-8-phenyl-1,2,3,3a,4,5-hexahydrobenzo[e]pyrrolo[3,4-c]azepin-6(10bH)-one] |  | inactive |  | 3.7 |  |  |  |  |  |
|  |  |  | CN1C[C@H]2CNC(=O)c3ccc(F)cc3[C@@H]2C1 (relative stereo) [Example 90, Trans-9-fluoro-2-methyl-1,2,3,3a,4,5-hexahydrobenzo[e]pyrrolo[3,4-c]azepin-6(10bH)-one] |  | inactive | > 10000 nM | 14.5 | 85 | 300 |  |  |  |
|  |  |  | CN1C[C@H]2CNC(=O)c3cc(F)ccc3[C@@H]2C1 (relative stereo) [Example 91, Trans-8-fluoro-2-methyl-1,2,3,3a,4,5-hexahydrobenzo[e]pyrrolo[3,4-c]azepin-6(10bH)-one] |  |  | 3000 nM | 1.5 | > 120 | 20 | 25 |  |  |
| > 10000 | 100 | > 120 | c1ccc(CN2C[C@@H]3CCOc4ccccc4[C@H]3C2)cc1 (relative stereo) [Example 93, Trans-2-benzyl-2,3,3a,4,5,10b-hexahydro-1H-[1]benzoxepino[4,5-c]pyrrole] |  | inactive |  | 4.4 |  |  |  |  |  |
|  |  |  | c1ccc2c(c1)OCC[C@H]1CNC[C@H]21 (relative stereo) [Example 94, Trans-2,3,3a,4,5,10b-hexahydro-1H-[1]benzoxepino[4,5-c]pyrrole] |  |  | 500 nM | 124 | > 120 | 30 | 45 |  |  |
|  |  |  | Clc1ccc2c(c1)[C@H]1CNC[C@@H]1CCO2 (relative stereo) [Example 95, Trans-9-chloro-2,3,3a,4,5,10b-hexahydro-1H-[1]benzoxepino[4,5-c]pyrrole] |  |  |  | 1.7 | > 120 |  | 35 |  |  |
|  |  |  | c1ccc2c(c1)OCC[C@H]1CNC[C@@H]21 (relative stereo) [Example 96, Cis-2,3,3a,4,5,10b-hexahydro-1H-[1]benzoxepino[4,5-c]pyrrole] | 380 |  | 1000 nM | 36.9 | 120 | 200 | 50 |  |  |
|  |  |  | O=C1NC[C@@H]2CNC[C@H]2c2cccc(F)c21 (single isomer, unassigned) [Example 62, Trans-7-fluoro-1,2,3,3a,4,5-hexahydrobenzo[e]pyrrolo[3,4-c]azepin-6(10bH)-one] | 8.2 | 80% | 700 nM | 0.3 |  | 1.2 |  |  | >120 |

— patent publication US8846951B2 (AbbVie Inc., priority 2009, dated 2014)
